From BindingDB's records for PubMed 39442337 (China Pharmaceutical University)

How the values were obtained:
[1] = Antagonist activity at PAR4 in mouse washed platelets assessed as inhibition of gamma-PAR4 agonist peptide (AYPGKF-NH2)-induced platelet aggregation preincubated for 5 mins followed by peptide addition and measured after 5 mins by aggregometer
[2] = Antagonist activity at PAR4 in human platelet rich plasma assessed as inhibition of gamma-PAR4 agonist peptide (AYPGKF-NH2)-induced platelet aggregation preincubated for 5 mins followed by peptide addition and measured after 5 mins by aggregometer

Row | SMILES | IC50 [1] [nM] | IC50 [2] [nM]
1 | COCc1ncc2c(-c3nc4cc(F)c(OCCOC(=O)Nc5cc(F)cc(C#N)c5)cc4s3)cc(C)cc2n1 | 19 | 9.5
2 | COCc1ncc2c(-c3nc4cc(F)c(OCCOC(=O)OC)cc4s3)cc(C)cc2n1 | 643 | –
3 | COc1ncc2c(-c3nc4cc(F)c5c(c4s3)C[C@H](COC(=O)Nc3cc(F)cc(C#N)c3)O5)cc(C)cc2n1 | 8.6 | 3.5
4 | COC(=O)OC[C@H]1Cc2c(c(F)cc3nc(-c4cc(C)cc5nc(OC)ncc45)sc23)O1 | 535 | –
5 | COc1cc(Cl)c2nc(-c3cc(C)cc4cnc(C)nc34)sc2c1 | 64 | –
6 | COCCOc1ncc2cc(C)cc(-c3nc4c(Cl)cc(OC)cc4s3)c2n1 | > 1000 | –
7 | COc1cc(OC)c2nc(-c3cc(C)cc4nc(SC)ncc34)sc2c1 | > 1000 | –
8 | CCOc1ncc2c(-c3nc4c(F)cc(OC)cc4s3)cc(C)cc2n1 | 274 | –
9 | COc1ncc2cc(C)cc(-c3nc4ccccc4s3)c2n1 | 563 | –
10 | COc1cc(F)c2nc(-c3cc(C)cc4cnc(OC)nc34)sc2c1 | 41 | –
11 | COCc1ncc2c(-c3nc4cc(F)c(OCCOC(=O)Nc5ccc(C(=O)N6CCOCC6)cc5)cc4s3)cc(C)cc2n1 | 89 | –
12 | COc1cc(Cl)c2nc(-c3cc(C)cc4nc(SC)ncc34)sc2c1 | 136 | –
13 | COc1cc(F)c2nc(-c3cc(C)cc4nc(OC)ncc34)sc2c1 | 80 | –
14 | COc1ncc2cc(C)cc(-c3nc4c(Cl)cc(Cl)cc4s3)c2n1 | 356 | –
15 | CNc1ncc2c(-c3nc4c(Cl)cc(OC)cc4s3)cc(C)cc2n1 | 223 | –
16 | CCOc1ncc2cc(C)cc(-c3nc4c(Cl)cc(OC)cc4s3)c2n1 | 567 | –
17 | COc1ccc(NC(=O)OC[C@H]2Cc3c(c(F)cc4nc(-c5cc(C)cc6nc(OC)ncc56)sc34)O2)cn1 | 356 | –
18 | COc1ccc2nc(-c3cc(C)cc4nc(OC)ncc34)sc2c1 | 103 | –
19 | COc1ccc(NC(=O)OC[C@H]2Cc3c(c(F)cc4nc(-c5cc(C)cc6nc(OC)ncc56)sc34)O2)cc1 | 96 | –
20 | COCOc1ncc2c(-c3nc4cc(F)c(OC)cc4s3)cc(C)cc2n1 | 25 | –
21 | COc1ncc2c(-c3nc4cc(F)c(OCCO)cc4s3)cc(C)cc2n1 | 27 | –
22 | COc1cc2sc(-c3cc(C)cc4nc(SC)ncc34)nc2cc1F | 96 | –

Row | SMILES | IC50 [1] [nM] | IC50 [2] [nM]
23 | COc1ncc2c(-c3nc4cc(F)c5c(c4s3)C[C@H](COC(=O)Nc3cccc(C#N)c3)O5)cc(C)cc2n1 | 15 | 6.4
24 | COCOc1ncc2c(-c3nc4c(Cl)cc(OC)cc4s3)cc(C)cc2n1 | 45 | –
25 | COc1ccc2nc(-c3cc(C)cc4nc(OC(C)C)ncc34)sc2c1 | 362 | –
26 | COc1ccc2nc(-c3cc(C)cc4nc(SC)ncc34)sc2c1 | 223 | –
27 | COc1ncc2c(-c3nc4cc(F)c5c(c4s3)C[C@H](COC(=O)Nc3ccc(C)cc3)O5)cc(C)cc2n1 | 73 | –
28 | COCc1ncc2c(-c3nc4cc(F)c(OCCOC(=O)N5CCOCC5)cc4s3)cc(C)cc2n1 | 756 | –
29 | COc1ncc2c(-c3nc4cc(F)c5c(c4s3)C[C@@H](COC(=O)Nc3cc(F)cc(C#N)c3)O5)cc(C)cc2n1 | 109 | –
30 | COCOc1ncc2c(-c3nc4ccc(OC)cc4s3)cc(C)cc2n1 | 109 | –
31 | COc1cc(Cl)c2nc(-c3cc(C)cc4cnc(N(C)C)nc34)sc2c1 | 105 | –
32 | COc1ncc2cc(C)cc(-c3nc4c(C)cc5c(c4s3)OCCO5)c2n1 | 117 | –
33 | COc1ncc2cc(C)cc(-c3nc4cc(F)c(OC)cc4s3)c2n1 | 30 | –
34 | CCOc1ncc2c(-c3nc4cc(F)c(OC)cc4s3)cc(C)cc2n1 | 369 | –
35 | COc1ncc2c(-c3nc4cc(F)c(OC)cc4s3)cc(C)cc2n1 | 21 | –
36 | COc1cc(C)c2nc(-c3cc(C)cc4nc(OC)ncc34)sc2c1 | 163 | –
37 | COc1ccc2nc(-c3cc(C)cc4cnc(OC)nc34)sc2c1 | 89 | –
38 | COc1cc(Cl)c2nc(-c3cc(C)cc4cnc(OC)nc34)sc2c1 | 32 | –
39 | COc1ccc(NC(=O)OC[C@H]2Cc3c(c(F)cc4nc(-c5cc(C)cc6nc(OC)ncc56)sc34)O2)c(C)c1 | 187 | –
40 | COc1cc(Cl)c2nc(-c3cc(C)cc4cnc(N5CCCCC5)nc34)sc2c1 | 335 | –
41 | CNc1ncc2cc(C)cc(-c3nc4c(Cl)cc(OC)cc4s3)c2n1 | 98 | –
42 | COc1cc(OC)c2nc(-c3cc(C)cc4nc(OC)ncc34)sc2c1 | 223 | –
43 | COc1ncc2c(-c3nc4cc(F)c5c(c4s3)C[C@H](COC(=O)Nc3ccc(OC)c(F)c3)O5)cc(C)cc2n1 | 169 | –
44 | COc1cc(Cl)c2nc(-c3cc(C)cc4cnc(N5CCOCC5)nc34)sc2c1 | 220 | –

Row | SMILES | IC50 [1] [nM] | IC50 [2] [nM]
45 | COc1cc(Cl)c2nc(-c3cc(C)cc4nc(OC(C)C)ncc34)sc2c1 | 456 | –
46 | COc1ncc2c(-c3nc4cc(F)c5c(c4s3)C[C@H](COC(=O)N3CCOCC3)O5)cc(C)cc2n1 | 168 | –
47 | COc1cc(Cl)c2nc(-c3cc(C)cc4cnc(OC5CCCC5)nc34)sc2c1 | 986 | –
48 | COc1cc(Cl)c2nc(-c3cc(C)cc4cnc(N5CC6(COC6)C5)nc34)sc2c1 | > 1000 | –
49 | COCCCOc1ncc2cc(C)cc(-c3nc4c(Cl)cc(OC)cc4s3)c2n1 | 963 | –
50 | COc1ncc2c(-c3nc4cc(F)c5c(c4s3)C[C@@H](COC(=O)Nc3ccc(C(=O)N4CCOCC4)cc3)O5)cc(C)cc2n1 | 165 | –
51 | COc1cc(Cl)c2nc(-c3cc(C)cc4cnc(OC(F)F)nc34)sc2c1 | 87 | –
52 | COCOc1ncc2c(-c3nc4c(F)cc(OC)cc4s3)cc(C)cc2n1 | 89 | –
53 | COc1cc(Cl)c2nc(-c3cc(C)cc4cnc(OCC(C)C)nc34)sc2c1 | > 1000 | –
54 | COCc1ncc2c(-c3nc4cc(F)c(OCCOC(=O)Nc5cccc(C#N)c5)cc4s3)cc(C)cc2n1 | 69 | –
55 | COc1cc(Cl)c2nc(-c3cc(C)cc4cnc(SC)nc34)sc2c1 | 89 | –
56 | COc1ncc2c(-c3nc4cc(F)c5c(c4s3)C[C@H](COC(=O)Nc3ccc(C(=O)N4CCOCC4)cc3)O5)cc(C)cc2n1 | 417 | –
57 | COc1ncc2c(-c3nc4ccccc4s3)cc(C)cc2n1 | 368 | –
58 | CCOc1ncc2c(-c3nc4c(Cl)cc(OC)cc4s3)cc(C)cc2n1 | 223 | –
59 | COc1ncc2c(-c3nc4cc(F)c5c(c4s3)C[C@@H](COC(=O)N3CCOCC3)O5)cc(C)cc2n1 | 304 | –
60 | COc1cc(Cl)c2nc(-c3cc(C)cc4cncnc34)sc2c1 | 72 | –
61 | COc1cc(Cl)c2nc(-c3cc(C)cc4cnc(N5CCC6(CC5)OCCO6)nc34)sc2c1 | > 1000 | –
62 | COc1cc(Cl)c2nc(-c3cc(C)cc4nc(OC)ncc34)sc2c1 | 46 | –
63 | COc1ncc2c(-c3nc4cc(F)c5c(c4s3)C[C@H](COC(=O)Nc3ccc(C)cc3F)O5)cc(C)cc2n1 | 51 | –
64 | COc1cc(Cl)c2nc(-c3cc(C)cc4cnc(OC(C)C)nc34)sc2c1 | 773 | –
65 | COc1ncc2c(-c3nc4cc(F)c5c(c4s3)C[C@H](COC(=O)Nc3cnc(C)nc3)O5)cc(C)cc2n1 | 689 | –
